Inhibition data for 26 compounds are collected here from patent US20160264536A1, “HETEROCYCLIC COMPOUND” (Takeda Pharmaceutical Company Limited, priority 2013, published 2016).

Molecules are shown by their SMILES.

T1 sequence (O00408 whole entry): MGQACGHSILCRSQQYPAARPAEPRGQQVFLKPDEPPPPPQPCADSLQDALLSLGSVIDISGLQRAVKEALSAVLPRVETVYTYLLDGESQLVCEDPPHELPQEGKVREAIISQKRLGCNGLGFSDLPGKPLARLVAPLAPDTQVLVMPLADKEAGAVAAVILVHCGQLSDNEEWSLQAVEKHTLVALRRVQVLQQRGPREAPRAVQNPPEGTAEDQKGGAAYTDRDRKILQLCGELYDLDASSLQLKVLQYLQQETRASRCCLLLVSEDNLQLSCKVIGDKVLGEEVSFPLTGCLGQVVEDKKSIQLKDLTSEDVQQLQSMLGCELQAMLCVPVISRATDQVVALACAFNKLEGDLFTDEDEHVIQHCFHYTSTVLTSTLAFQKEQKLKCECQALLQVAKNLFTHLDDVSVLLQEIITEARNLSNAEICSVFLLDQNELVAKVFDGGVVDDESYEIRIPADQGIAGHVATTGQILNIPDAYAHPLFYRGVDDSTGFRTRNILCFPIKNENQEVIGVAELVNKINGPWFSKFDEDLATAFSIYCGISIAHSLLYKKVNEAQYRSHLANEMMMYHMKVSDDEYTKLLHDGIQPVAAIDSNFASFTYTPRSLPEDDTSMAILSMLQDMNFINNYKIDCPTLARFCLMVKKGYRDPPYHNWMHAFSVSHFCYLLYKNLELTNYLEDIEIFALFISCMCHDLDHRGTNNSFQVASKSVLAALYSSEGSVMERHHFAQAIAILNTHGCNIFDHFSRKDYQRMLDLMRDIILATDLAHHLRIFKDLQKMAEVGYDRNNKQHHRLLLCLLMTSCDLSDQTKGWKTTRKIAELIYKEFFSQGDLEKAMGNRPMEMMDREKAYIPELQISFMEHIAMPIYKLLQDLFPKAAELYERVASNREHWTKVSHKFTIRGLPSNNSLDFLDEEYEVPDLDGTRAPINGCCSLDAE

The assay has as its target T1, human PDE2A3 enzyme (Homo sapiens, UniProt O00408).
T1 construct: Human PDE2A3 full-length gene was transduced into Sf9; His-tag; made in house; host or cells: Sf9 insect cells
Briefly: PDE enzyme inhibitory assay (SPA, [3H]cGMP substrate). It is filed as biochemical. The conditions noted are these: compound 1 μM, substrate [3H]cGMP 77 nM, read-out: inhibitory rate (%) (1 μM). The protocol:
PDE Enzyme Inhibitory Assay
Human PDE2A3 full-length gene was transduced into Sf9, and human PDE2A3 enzyme was purified by His-tag affinity column and gel filtration. The enzyme was stored at −70° C. until use. PDE activity was measured by using a SPA (Scintillation Proximity Assay) (GE Healthcare). To evaluate the inhibitory activity of the compound, 10 μl of serial diluted compounds were reacted with 20 μl of PDE enzyme in assay buffer (50 mM HEPES-NaOH, 8.3 mM MgCl2, 1.7 mM EGTA, 0.1% BSA (pH 7.4)) for 30 min at room temperature. Final concentration of DMSO in the reaction solution was 1%. Compounds were tested in duplicate in 96-well half-area plates (Corning) or 384-well OptiPlate (PerkinElmer). To start the reaction, 10 μl of substrate [^3H]cGMP (final concentration 77 nM, PerkinElmer) was added to a total volume of 40 μl. After reaction for 60 min at room temperature, 20 μl of 20 mg/mL yttrium SPA beads containing zinc sulfate was added to terminate the reaction. After being settled for further 1 hour, the assay plates were counted in a scintillation counter (PerkinElmer) to allow calculation of inhibition rate. Inhibition rate was calculated on the basis of 0% control wells with enzyme and DMSO, and 100% control wells without enzyme.
Consider `COC[C@@H](NC(=O)c1cc(=O)[nH]c(N(C)C)n1)c1ccc(OC(F)(F)F)cc1` [Example 20, 2-(dimethylamino)-N-((1S)-2-methoxy-1-(4-(trifluoromethoxy)phenyl)ethyl)-6-oxo-1,6-dihydropyrimidine-4-carboxamide], for which the inhibition at 1 µM worked out at 98%.

Take `COC[C@@H](NC(=O)c1cc(=O)[nH]c(N(C)C)n1)c1ccc(OC(F)(F)F)c(F)c1` [Example 33, 2-(dimethylamino)-N-((1S)-1-(3-fluoro-4-(trifluoromethoxy)phenyl)-2-methoxyethyl)-6-oxo-1,6-dihydropyrimidine-4-carboxamide]: the inhibition at 1 µM turned out to be 99%. Consider `COC[C@@H](NC(=O)c1cc(=O)[nH]c(N2CC[C@H](OC)C2)n1)c1ccc(OC(F)(F)F)cc1` [Example 45, 2-((3S)-3-methoxypyrrolidin-1-yl)-N-((1S)-2-methoxy-1-(4-(trifluoromethoxy)phenyl)ethyl)-6-oxo-1,6-dihydropyrimidine-4-carboxamide], for which the inhibition at 1 µM stood at 97%. For the compound `COC[C@@H](NC(=O)c1cc(=O)[nH]c(N2CCCC2)n1)c1ccc(OC(F)(F)F)cc1` [Example 52, N-((1S)-2-methoxy-1-(4-(trifluoromethoxy)phenyl)ethyl)-6-oxo-2-(pyrrolidin-1-yl)-1,6-dihydropyrimidine-4-carboxamide], the inhibition at 1 µM amounted to 102%.

`COC[C@@H](NC(=O)c1cc(=O)[nH]c(N2CC(OC)C2)n1)c1ccc(OC(F)(F)F)cc1` [Example 55, 2-(3-methoxyazetidin-1-yl)-N-((1S)-2-methoxy-1-(4-(trifluoromethoxy)phenyl)ethyl)-6-oxo-1,6-dihydropyrimidine-4-carboxamide]: the inhibition at 1 µM came to 98%. Consider `COC[C@@H](NC(=O)c1cc(=O)[nH]c(N2CCCC2)n1)c1ccc(OC(F)(F)F)c(F)c1` [Example 61, N-((1S)-1-(3-fluoro-4-(trifluoromethoxy)phenyl)-2-methoxyethyl)-6-oxo-2-(pyrrolidin-1-yl)-1,6-dihydropyrimidine-4-carboxamide], for which the inhibition at 1 µM worked out at 98%. Regarding `CC(C)(O)C(NC(=O)c1cc(=O)[nH]c(N2CCCC2)n1)c1ccc(OC(F)(F)F)c(F)c1` (centres unmarked) [Example 62, N-(1-(3-fluoro-4-(trifluoromethoxy)phenyl)-2-hydroxy-2-methylpropyl)-6-oxo-2-(pyrrolidin-1-yl)-1,6-dihydropyrimidine-4-carboxamide], the inhibition at 1 µM was found to be 99%. Turning to `COC[C@@H](NC(=O)c1cc(=O)[nH]c(N2CC[C@H](OC(C)C)C2)n1)c1ccc(OC(F)(F)F)cc1` [Example 67, 2-((3S)-3-isopropoxypyrrolidin-1-yl)-N-((1S)-2-methoxy-1-(4-(trifluoromethoxy)phenyl)ethyl)-6-oxo-1,6-dihydropyrimidine-4-carboxamide], the inhibition at 1 µM was found to be 100%. As for `COC[C@@H](NC(=O)c1cc(=O)[nH]c(N2CC3CC(C2)O3)n1)c1ccc(OC(F)(F)F)c(F)c1` [Example 73, N-((1S)-1-(3-fluoro-4-(trifluoromethoxy)phenyl)-2-methoxyethyl)-2-(6-oxa-3-azabicyclo[3.1.1]hept-3-yl)-6-oxo-1,6-dihydropyrimidine-4-carboxamide], the inhibition at 1 µM was 99%. As to `CCN(C)c1nc(C(=O)N[C@H](COC)c2ccc(OC(F)(F)F)c(F)c2)cc(=O)[nH]1` [Example 76, 2-(ethyl(methyl)amino)-N-((1S)-1-(3-fluoro-4-(trifluoromethoxy)phenyl)-2-methoxyethyl)-6-oxo-1,6-dihydropyrimidine-4-carboxamide], the inhibition at 1 µM came out at 101%. For `COC[C@@H](NC(=O)c1cc(=O)[nH]c(C(C)(C)C)n1)c1ccc(OC(F)(F)F)c(F)c1` [Example 80, 2-tert-butyl-N-((1S)-1-(3-fluoro-4-(trifluoromethoxy)phenyl)-2-methoxyethyl)-6-oxo-1,6-dihydropyrimidine-4-carboxamide], the inhibition at 1 µM amounted to 94%. The value for `COC[C@@H](NC(=O)c1cc(=O)[nH]c(C2CC2)n1)c1ccc(OC(F)(F)F)c(F)c1` [Example 81, 2-cyclopropyl-N-((1S)-1-(3-fluoro-4-(trifluoromethoxy)phenyl)-2-methoxyethyl)-6-oxo-1,6-dihydropyrimidine-4-carboxamide] was 93%; that for `COC[C@@H](NC(=O)c1cc(=O)[nH]c(C2=CCCC2)n1)c1ccc(OC(F)(F)F)c(F)c1` [Example 83, 2-(cyclopent-1-en-1-yl)-N-((1S)-1-(3-fluoro-4-(trifluoromethoxy)phenyl)-2-methoxyethyl)-6-oxo-1,6-dihydropyrimidine-4-carboxamide] was 98%; that for `COC[C@@H](NC(=O)c1cc(=O)[nH]c(-c2ccccc2)n1)c1ccc(OC(F)(F)F)c(F)c1` [Example 87, N-((1S)-1-(3-fluoro-4-(trifluoromethoxy)phenyl)-2-methoxyethyl)-6-oxo-2-phenyl-1,6-dihydropyrimidine-4-carboxamide] was 98%.

Regarding `COC[C@@H](NC(=O)c1cc(=O)[nH]c(-c2ccccn2)n1)c1ccc(OC(F)(F)F)c(F)c1` [Example 88, N-((1S)-1-(3-fluoro-4-(trifluoromethoxy)phenyl)-2-methoxyethyl)-6-oxo-2-(pyridin-2-yl)-1,6-dihydropyrimidine-4-carboxamide], the inhibition at 1 µM was 92%. Turning to `CC(C)(C)c1nc(C(=O)N[C@@H](c2ccc(OC(F)(F)F)c(F)c2)C(C)(C)O)cc(=O)[nH]1` [Example 95, 2-tert-butyl-N-(1-(3-fluoro-4-(trifluoromethoxy)phenyl)-2-hydroxy-2-methylpropyl)-6-oxo-1,6-dihydropyrimidine-4-carboxamide], the inhibition at 1 µM came out at 104%. In the case of `CC(C)(O)[C@@H](NC(=O)c1cc(=O)[nH]c(C2CC2)n1)c1ccc(OC(F)(F)F)c(F)c1` [Example 96, 2-cyclopropyl-N-((1S)-1-(3-fluoro-4-(trifluoromethoxy)phenyl)-2-hydroxy-2-methylpropyl)-6-oxo-1,6-dihydropyrimidine-4-carboxamide], the inhibition at 1 µM came out at 94%. Take `CC(C)(O)[C@@H](NC(=O)c1cc(=O)[nH]c(-c2ccccn2)n1)c1ccc(OC(F)(F)F)c(F)c1` [Example 102, N-((1S)-1-(3-fluoro-4-(trifluoromethoxy)phenyl)-2-hydroxy-2-methylpropyl)-6-oxo-2-(pyridin-2-yl)-1,6-dihydropyrimidine-4-carboxamide]: the inhibition at 1 µM worked out at 102%. Turning to `COC[C@@H](NC(=O)c1cc(=O)[nH]c(C2(C)CC2)n1)c1ccc(OC(F)(F)F)c(F)c1` [Example 103, N-((1S)-1-(3-fluoro-4-(trifluoromethoxy)phenyl)-2-methoxyethyl)-2-(1-methylcyclopropyl)-6-oxo-1,6-dihydropyrimidine-4-carboxamide], the inhibition at 1 µM came to 108%. Consider `COC[C@@H](NC(=O)c1cc(=O)[nH]c(-c2ccc(OC)cn2)n1)c1ccc(OC(F)(F)F)c(F)c1` [Example 105, N-((1S)-1-(3-fluoro-4-(trifluoromethoxy)phenyl)-2-methoxyethyl)-2-(5-methoxypyridin-2-yl)-6-oxo-1,6-dihydropyrimidine-4-carboxamide], for which the inhibition at 1 µM is 104%.

On to `COC[C@@H](NC(=O)c1cc(=O)[nH]c(-c2cccs2)n1)c1ccc(OC(F)(F)F)c(F)c1` [Example 107, N-((1S)-1-(3-fluoro-4-(trifluoromethoxy)phenyl)-2-methoxyethyl)-6-oxo-2-(2-thienyl)-1,6-dihydropyrimidine-4-carboxamide], for which the inhibition at 1 µM is 97%.

As for `CC#Cc1nc(C(=O)N[C@H](COC)c2ccc(OC(F)(F)F)c(F)c2)cc(=O)[nH]1` [Example 111, N-((1S)-1-(3-fluoro-4-(trifluoromethoxy)phenyl)-2-methoxyethyl)-6-oxo-2-(prop-1-yn-1-yl)-1,6-dihydropyrimidine-4-carboxamide], the inhibition at 1 µM amounted to 94%. The value for `CC(C)(O)[C@@H](NC(=O)c1cc(=O)[nH]c(C2=CCCC2)n1)c1ccc(OC(F)(F)F)c(F)c1` [Example 114, 2-(cyclopent-1-en-1-yl)-N-((1S)-1-(3-fluoro-4-(trifluoromethoxy)phenyl)-2-hydroxy-2-methylpropyl)-6-oxo-1,6-dihydropyrimidine-4-carboxamide] was 104%; that for `COC[C@@H](NC(=O)c1cc(=O)[nH]c(C2=CCCC2)n1)c1ccc(OC(F)(F)F)cc1` [Example 115, 2-(cyclopent-1-en-1-yl)-N-((1S)-2-methoxy-1-(4-(trifluoromethoxy)phenyl)ethyl)-6-oxo-1,6-dihydropyrimidine-4-carboxamide] was 100%. Under `COCC(NC(=O)c1cc(=O)[nH]c(-c2ccccn2)n1)c1ccc(-n2cccc2)c(F)c1` (centres unmarked) [Example 116, N-(1-(3-fluoro-4-(1H-pyrrol-1-yl)phenyl)-2-methoxyethyl)-6-oxo-2-(pyridin-2-yl)-1,6-dihydropyrimidine-4-carboxamide] stands 99%; under `COC[C@@H](NC(=O)c1cc(=O)[nH]c(-c2ccsc2)n1)c1ccc(OC(F)(F)F)c(F)c1` [Example 120, N-((1S)-1-(3-fluoro-4-(trifluoromethoxy)phenyl)-2-methoxyethyl)-6-oxo-2-(3-thienyl)-1,6-dihydropyrimidine-4-carboxamide], 103%.
